# Experimental data taken from patent US20100299770A1, “TARGETED CELL DEATH” (priority 2007, published 2010).
# Assays:
# [1] = tested on: primary oligodendrocyte cultures; assay: CID-induced cell death in iCP9 virus-transduced primary oligodendrocyte cultures; type: cell-based, rat; details: CID 10 nM; cultures stably expressing iCP9; fluorescent microscope and Methylene Blue viability staining
# Method: 293T cells were transfected with the pΔmbpICP9/mEGFP vector along with plasmids encoding the gag-pol and RD114 envelope protein using lipofectamine (Invitrogen, Carlsbad, Calif.). Forty-eight hours after transfection viral supernatant were harvested and either directly applied to target cells or snap frozen and stored at -80° C.
# To induce timely cell death. Collected virus was used to transduce primary oligodendrocyte cultures that have been established. Cells were cultured and evaluated using fluorescent microscopy for the expression of GFP. The extent of GFP positive cells correlated with the viral infection efficacy. Cell protein isolation was conducted and protein isolates were subjected to Western blot transfer to detect stable expression of the iCP9 protein. The resultant membrane was probed with anti-caspase 9 antibody (R&D Systems Inc. #AF8301). Once the stable expression of iCP9 was confirmed at the protein level wan western mot techniques, the CID was applied to these cells in culture at a 10 nM concentration. […] Cell death was detected by viewing cultures under the fluorescent microscope and by using Methylene Blue (Sigma) viability staining of cells in culture after exposure to the CID. All experiments were run in parallel using the astrocyte-derived U87 cell line as a negative control.
# CNS of adult rats = assay: Animal model of CNS demyelination, virus applied to CNS of adult rats, CID intraperitoneal; type: in vivo, rat; details: CID via intraperitoneal injection at various times after virus
# Method: The virus described above, pΔmbpICP9/mEGFP, which contains the inducible caspase 9 sequence was applied to the CNS of adult rats to create an in vivo model of CNS demyelination. Administration of the viral vector allowed effective transfer of genetic information in a variable area of parenchyma based on the rate of administration (convective distribution) and viral titer. […] First, adult Fischer rats were anaesthetized by intraperitoneal injection o f ketamine hydrocholoride (80 mg/kg) and xylazine ([…]) and placed in a sereotactic frame. A midline scalp incision is made. Access to brain parenchyma was accomplished by plaement of a right-sided burr hole through the skull, at various predetermined coordinates depending on the desired location of the lesion. […] The volume of viral vector (e.g., lentivirus) delivered depends upon the infection efficacy as determined herein and the target area size. After injection, the needle is left in place for five minutes and then slowly withdrawn over the next four minutes. The skin was closed with sutures.
# For virus administration to the spinal cord an incision was made in the thoracic spine followed by a lamenectomy to expose the spinal cord. A No. 32S-gauge needle was passed into the posterior column at predetermined coordinates.
smiles,measurement,setting,value
"CC[C@H](C(=O)N1CCCC[C@H]1C(=O)O[C@H](CCc1ccc(OC)c(OC)c1)c1cccc(OCC(=O)NCC(CNC(=O)COc2cccc([C@@H](CCc3ccc(OC)c(OC)c3)OC(=O)[C@@H]3CCCCN3C(=O)[C@@H](CC)c3cc(OC)c(OC)c(OC)c3)c2)CN(C)C)c1)c1cc(OC)c(OC)c(OC)c1 [CID, AP20187]",cell death of infected cells after CID,[1],induced the cellular death of infected cells
same,effect of CID on the infected region of the CNS,CNS of adult rats,apoptosis of the infected region of the CNS
